Measured values from the NIST ThermoML archive (doi:10.1016/j.fluid.2011.08.011).
Values joined by “and” are separate entries in the source; they are usually repeats but may differ in a detail not shown here. Equal entries are not always repeated.

Tests used:
[1] = Solid-liquid equilibrium temperature; conditions: 101.3 kPa; Crystal; DTA
[2] = molar heat capacity at constant pressure; conditions: 101.33 kPa, Liquid, Small sample (50 mg) DSC
[3] = Molar enthalpy of transition or fusion; conditions: Crystal; DSC
[4] = Liquid, Closed cell (Static) method

CC(C)(C)[O-].CC(C)(C)[O-].CC(C)(C)[O-].CC(C)(C)[O-].[Hf+4] [hafnium(IV) 2-methylpropan-2-olate]
Conditions	Molar enthalpy of transition or fusion [kcal/mol]	Solid-liquid equilibrium temperature
[1]	–	271.9 K and 271.8 K and 271.7 K
[3]	7.72	–

Conditions	molar heat capacity at constant pressure	vapor or sublimation pressure
[2], 293.83 K	596.3 J/K/mol and 598.5 J/K/mol	–
[2], 298.94 K	598.9 J/K/mol and 598.2 J/K/mol	–
[2], 304.04 K	601.3 J/K/mol and 601.8 J/K/mol	–
[2], 309.15 K	604.8 J/K/mol and 600.7 J/K/mol	–
[2], 314.25 K	604.8 J/K/mol and 602.9 J/K/mol	–
[2], 319.35 K	612.6 J/K/mol and 614.6 J/K/mol	–
[2], 324.46 K	614.2 J/K/mol and 613.8 J/K/mol	–
[2], 329.56 K	616.6 J/K/mol and 621.7 J/K/mol	–
[2], 334.66 K	626.3 J/K/mol and 625.9 J/K/mol	–
[2], 339.77 K	631.5 J/K/mol and 628.5 J/K/mol	–
[2], 344.88 K	635.3 J/K/mol and 638.1 J/K/mol	–
[2], 349.98 K	635.5 J/K/mol and 635.9 J/K/mol	–
[4], 280.65 K	–	0.00169 kPa and 0.00172 kPa and 0.00174 kPa
[4], 283.15 K	–	0.00214 kPa and 0.00217 kPa and 0.00219 kPa
[4], 285.65 K	–	0.00279 kPa and 0.00282 kPa and 0.00284 kPa
[4], 288.15 K	–	0.00362 kPa and 0.00364 kPa and 0.00361 kPa
[4], 290.65 K	–	0.00443 kPa and 0.00442 kPa and 0.00444 kPa
[4], 293.15 K	–	0.00563 kPa and 0.00565 kPa and 0.00564 kPa
[4], 295.65 K	–	0.00722 kPa and 0.0072 kPa
[4], 298.15 K	–	0.00874 kPa and 0.00873 kPa
[4], 300.65 K	–	0.01111 kPa and 0.01107 kPa and 0.01104 kPa
[4], 303.15 K	–	0.01348 kPa and 0.01346 kPa
[4], 305.67 K	–	0.01669 kPa and 0.01664 kPa and 0.0166 kPa
[4], 308.17 K	–	0.02071 kPa and 0.02061 kPa and 0.02059 kPa
